Here are results for 31 molecules from patent US10829501B2 (BRISTOL-MYERS SQUIBB COMPANY, priority 2016, dated 2020).

pIC50: −log10 of the molar value. Counter-ions that a name gives are not always drawn. Bounds are passed on as bounds.

This assay deals with ROCK2 (Homo sapiens, UniProt O75116). The assay can be described thus: ROCK2 kinase inhibition assay (LABCHIP 3000 Reader, FITC peptide substrate).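 Note: rho kinase reaction read by separating phosphorylated from unphosphorylated peptide on chip, with inhibition of kinase activity computed per concentration across a dose-response series.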
Chain of ROCK2 (O75116 whole entry, species assumed): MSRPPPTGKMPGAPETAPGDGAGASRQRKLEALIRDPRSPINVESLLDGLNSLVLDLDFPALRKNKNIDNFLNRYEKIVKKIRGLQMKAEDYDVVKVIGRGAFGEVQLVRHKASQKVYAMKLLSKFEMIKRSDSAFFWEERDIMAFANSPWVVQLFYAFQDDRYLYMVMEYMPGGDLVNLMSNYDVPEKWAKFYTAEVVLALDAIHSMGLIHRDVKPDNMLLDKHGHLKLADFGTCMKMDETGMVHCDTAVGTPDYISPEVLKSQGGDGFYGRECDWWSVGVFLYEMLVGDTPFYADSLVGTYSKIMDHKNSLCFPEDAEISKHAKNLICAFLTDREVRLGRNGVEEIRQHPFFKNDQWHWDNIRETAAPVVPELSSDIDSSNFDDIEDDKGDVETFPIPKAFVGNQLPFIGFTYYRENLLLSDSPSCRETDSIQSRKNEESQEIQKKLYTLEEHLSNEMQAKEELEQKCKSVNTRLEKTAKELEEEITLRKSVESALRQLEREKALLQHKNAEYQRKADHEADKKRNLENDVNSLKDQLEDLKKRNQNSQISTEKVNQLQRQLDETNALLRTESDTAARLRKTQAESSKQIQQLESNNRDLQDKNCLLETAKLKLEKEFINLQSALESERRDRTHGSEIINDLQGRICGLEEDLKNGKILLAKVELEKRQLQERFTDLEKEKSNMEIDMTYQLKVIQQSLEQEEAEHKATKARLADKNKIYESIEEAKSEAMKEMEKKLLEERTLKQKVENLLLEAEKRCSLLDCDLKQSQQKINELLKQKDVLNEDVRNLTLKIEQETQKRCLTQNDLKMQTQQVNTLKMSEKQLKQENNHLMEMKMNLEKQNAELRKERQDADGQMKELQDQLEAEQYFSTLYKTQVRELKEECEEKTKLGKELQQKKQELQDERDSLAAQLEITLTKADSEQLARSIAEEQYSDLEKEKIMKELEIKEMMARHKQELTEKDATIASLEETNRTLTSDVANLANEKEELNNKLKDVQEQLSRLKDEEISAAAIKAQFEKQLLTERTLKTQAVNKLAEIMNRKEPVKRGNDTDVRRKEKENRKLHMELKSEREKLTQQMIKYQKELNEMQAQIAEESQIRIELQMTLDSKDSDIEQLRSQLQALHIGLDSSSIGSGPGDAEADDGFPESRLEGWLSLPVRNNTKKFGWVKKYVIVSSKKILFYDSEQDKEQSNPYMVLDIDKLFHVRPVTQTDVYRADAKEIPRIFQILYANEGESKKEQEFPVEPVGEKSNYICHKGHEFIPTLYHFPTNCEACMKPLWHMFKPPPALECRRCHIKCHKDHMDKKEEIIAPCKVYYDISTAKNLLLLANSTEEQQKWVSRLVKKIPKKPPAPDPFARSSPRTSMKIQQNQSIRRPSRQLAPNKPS

For `[H][C@]1(Oc2ncccc2C(N)=O)C[C@@]2(C[C@H](NC(=O)c3cc(OCCC(F)(F)F)cc(-c4cnn(C)c4)c3)C2)C1` (stereo partly shown) [Example 57], the pIC50 (commonly −log10 of the IC50, conventionally taken in molar units) was 6.60 to 7.30. Under `[H][C@]1(Oc2ncccc2C(N)=O)C[C@@]2(C[C@H](NC(=O)c3cc(OCCC(F)(F)F)cc(-c4cccc(S(C)(=O)=O)c4)c3)C2)C1` (stereo partly shown) [Example 58] stands 6.60 to 7.30; under `[H][C@]1(Oc2ncccc2C(N)=O)C[C@@]2(C[C@H](NC(=O)c3cn4nc(OC)ccc4n3)C2)C1` (stereo partly drawn) [Example 59, N-((aR)-6-((3-carbamoylpyridin-2-yl)oxy)spiro[3.3]heptan-2-yl)-6-methoxyimidazo[1,2-b]pyridazine-2-carboxamide], 5.60 to 6.60.

`[H][C@]1(Oc2ncccc2C(N)=O)C[C@@]2(C[C@H](NC(=O)c3cnc4c(OC)cc(Cl)nn34)C2)C1` (stereo partly drawn) [Example 60, N-((aR)-6-((3-carbamoylpyridin-2-yl)oxy)spiro[3.3]heptan-2-yl)-6-chloro-8-methoxyimidazo[1,2-b]pyridazine-3-carboxamide]: the pIC50 is 5.60 to 6.60.

Take `[H][C@]1(Oc2ncccc2C(N)=O)C[C@@]2(C[C@H](NC(=O)c3cn4nc(OCC(F)(F)F)ccc4n3)C2)C1` (stereo partly drawn) [Example 61, N-((aR)-6-((3-carbamoylpyridin-2-yl)oxy)spiro[3.3]heptan-2-yl)-6-(2,2,2-trifluoroethoxy)imidazo[1,2-b]pyridazine-2-carboxamide]: the pIC50 is 6.60 to 7.30. Under `[H][C@]1(Oc2ncccc2C(N)=O)C[C@@]2(C[C@H](NC(=O)c3cn4nc(Cl)ccc4n3)C2)C1` (stereo partly drawn) [Example 62, N-((aR)-6-((3-carbamoylpyridin-2-yl)oxy)spiro[3.3]heptan-2-yl)-6-chloroimidazo[1,2-b]pyridazine-2-carboxamide] stands 5.60 to 6.60; under `[H][C@]1(Oc2ncccc2C(N)=O)C[C@@]2(C[C@H](NC(=O)c3cn4cc(C(N)=O)ccc4n3)C2)C1` (stereo partly drawn) [Example 63, N^2-((aR)-6-((3-carbamoylpyridin-2-yl)oxy)spiro[3.3]heptan-2-yl)imidazo[1,2-a]pyridine-2,6-dicarboxamide], 5.60 to 6.60. In the case of `CC(C)(O)COc1ccc2c(C(=O)N[C@H]3CC4(C3)C[C@H](Oc3ncccc3C(N)=O)C4)cnn2c1` (stereo partly drawn) [Example 64, N-((aR)-6-((3-carbamoylpyridin-2-yl)oxy)spiro[3.3]-heptan-2-yl)-6-(2-hydroxy-2-methylpropoxy) pyrazolo-[1,5-a]pyridine-3-carboxamide, trifluoroacetate] it was 7.30 to 8.30; in that of `CC(C)(O)COc1ccn2c(C(=O)N[C@H]3CC4(C3)C[C@H](Oc3ncccc3C(N)=O)C4)cnc2c1C1CC1` (stereo partly drawn) [Example 65, N-((aR)-6-((3-carbamoylpyridin-2-yl)oxy)spiro[3.3]heptan-2-yl)-8-cyclopropyl-7-(2-hydroxy-2-methylpropoxy) imidazo[1,2-a]pyridine-3-carboxamide, trifluoroacetate], more than 8.30; in that of `Cn1nc(C(=O)N[C@H]2CC3(C2)C[C@H](Oc2ncccc2C(N)=O)C3)c2ccccc21` (stereo partly shown) [Example 66], 7.30 to 8.30.

`Cn1ncc2cc(C(=O)N[C@H]3CC4(C3)C[C@H](Oc3ncccc3C(N)=O)C4)ccc21` (stereo partly drawn) [Example 68, N-((aR)-6-((3-carbamoylpyridin-2-yl)oxy)spiro[3.3]heptan-2-yl)-1-methyl-1H-indazole-5-carboxamide, trifluoroacetae] showed a pIC50 of 6.60 to 7.30.

With `Cn1c(C(=O)N[C@H]2CC3(C2)C[C@H](Oc2ncccc2C(N)=O)C3)cc2ccccc21` (stereo partly drawn) [Example 70, N-((aR)-6-((3-carbamoylpyridin-2-yl)oxy)spiro[3.3]heptan-2-yl)-1-methyl-1H-indole-2-carboxamide, trifluoroacetate], the pIC50 was 6.60 to 7.30. In the case of `NC(=O)c1cccnc1O[C@H]1CC2(C[C@H](NC(=O)c3ccn4ccnc4c3)C2)C1` (stereo partly drawn) [Example 71, N-((aR)-6-((3-carbamoylpyridin-2-yl)oxy)spiro[3.3]-heptan-2-yl)imidazo[1,2-a] pyridine-7-carboxamdie, trifluoroacetate] it was 5.60 to 6.60. In the case of `NC(=O)c1cccnc1O[C@H]1CC2(C[C@H](NC(=O)c3cnc4ccccc4c3)C2)C1` (stereo partly drawn) [Example 72, N-((aR)-6-((3-carbamoylpyridin-2-yl)oxy)spiro[3.3]-heptan-2-yl)quinoline-3-carboxamide, trifluoroacetate] it was 7.30 to 8.30; in that of `NC(=O)c1cccnc1O[C@H]1CC2(C[C@H](NC(=O)c3ccc(-n4cccn4)cc3)C2)C1` (stereo partly drawn) [Example 74, 2-((aR)-6-(4-(1H-pyrazol-1-yl)benzamido)spiro[3.3]heptan-2-yl)oxy) nicotinamide, trifluoroacetate], 5.60 to 6.60. In the case of `NC(=O)c1cccnc1O[C@H]1CC2(C[C@H](NC(=O)c3cn4ccccc4n3)C2)C1` (stereo partly drawn) [Example 75, N-((aR)-6-((3-carbamoylpyridin-2-yl)oxy)spiro[3.3]-heptan-2-yl)imidazo[1,2-a] pyridine-2-carboxamide, trifluoroacetate] it was 5.60 to 6.60. `N#Cc1ccc2nc(C(=O)N[C@H]3CC4(C3)C[C@H](Oc3ncccc3C(N)=O)C4)cn2c1` (stereo partly drawn) [Example 76, N-((aR)-6-((3-carbamoylpyridin-2-yl)oxy)spiro-[3.3]heptan-2-yl)-6-cyanoimidazo-[1,2-a]pyridine-2-carboxamide, trifluoroacetate]: the pIC50 was 5.60 to 6.60. Molecule `Cn1nc(C(C)(C)C)cc1C(=O)N[C@H]1CC2(C1)C[C@H](Oc1ncccc1C(N)=O)C2` (stereo partly drawn) [Example 77, 2-((aR)-6-(3-(tert-butyl)-1-methyl-1H-pyraole-5-carboxamido)spiro[3.3]heptan-2-yl)oxy) nicotinamide, trifluoroacetate] showed a pIC50 of 7.30 to 8.30. In the case of `COCCOCCn1nc(C(=O)N[C@H]2CC3(C2)C[C@H](Oc2ncccc2C(N)=O)C3)c2ccccc21` (stereo partly drawn) [Example 78, N-((aR)-6-((3-carbamoylpyridin-2-yl)oxy)spiro[3.3]heptan-2-yl)-1-(2-(2-methoxy-ethoxy)ethyl)-1H-indazole-3-carboxamide, trifluoroacetate] it was 6.60 to 7.30; in that of `COc1cc(C(=O)N[C@H]2CC3(C2)C[C@H](Oc2ncccc2C(N)=O)C3)ccc1-n1cnc(C)c1` (stereo partly drawn) [Example 79, 2-((aR)-6-(3-methoxy-4-(4-methyl-1H-imidazol-1-yl)benzamido)spiro-[3.3]heptan-2-yl)oxy) nicotinamide, trifluoroacetate], 6.60 to 7.30. In the case of `CN(C)CCOc1ccc2c(C(=O)N[C@H]3CC4(C3)C[C@H](Oc3ncccc3C(N)=O)C4)cnn2c1` (stereo partly drawn) [Example 80, N-((aR)-6-((3-carbamoylpyridin-2-yl)oxy)spiro[3.3]heptan-2-yl)-6-(2-(dimethylamino)ethoxy) pyrazolo[1,5-a] pyridine-3-carboxamdie, trifluoroacetate] it was 7.30 to 8.30; in that of `CC(C)(O)Cn1nc(C(=O)N[C@H]2CC3(C2)C[C@H](Oc2ncccc2C(N)=O)C3)c2ccc(Br)cc21` (stereo partly drawn) [Example 81, 6-bromo-N-((aR)-6-((3-carbamoylpyridin-2-yl)oxy)spiro[3.3]heptan-2-yl)-1-(2-hydroxy-2-methylpropyl)-1H-indazole-3-carboxamdie, trifluoroacetate], 7.30 to 8.30.

In turn, `NC(=O)c1cccnc1O[C@H]1CC2(C[C@H](NC(=O)c3cnn4cc(OCCC(F)(F)F)ccc34)C2)C1` (stereo partly drawn) [Example 82, N-((aR)-6-((3-carbamoylpyridin-2-yl)oxy)spiro[3.3]heptan-2-yl)-6-(3,3,3-trifluoropropoxy) pyrazolo[1,5-a]pyridine-3-carboxamide, trifluoroacetate] showed a pIC50 of more than 8.30. Molecule `Cc1cc(C(=O)N[C@H]2CC3(C2)C[C@H](Oc2ncccc2C(N)=O)C3)n(C)n1` (stereo partly drawn) [Example 83, 2-((aR)-6-(1,3-dimethyl-1H-pyrazole-5-carboxamido)spiro[3.3]heptan-2-yl)oxy)nicotinamide, trifluoroacetate] showed a pIC50 of 5.60 to 6.60. Under `Cn1nc(C(=O)N[C@H]2CC3(C2)C[C@H](Oc2ncccc2C(N)=O)C3)cc1OCC1CC1` (stereo partly drawn) [Example 84, 2-((aR)-6-(5-(cyclopropyl-methoxy)-1-methyl-1H-pyrazole-3-carboxamido)spiro-[3.3]heptan-2-yl)oxy) nicotinamide, trifluoroacetate] stands 6.60 to 7.30. In turn, `Cn1nc(C2CC2)cc1C(=O)N[C@H]1CC2(C1)C[C@H](Oc1ncccc1C(N)=O)C2` (stereo partly drawn) [Example 85, 2-((aR)-6-(3-cyclopropyl-1-methyl-1H-pyrazole-5-carboxamido)spiro[3.3]heptan-2-yl)oxy) nicotinamide, trifluoroacetate] gave a negative logarithm of the IC50 (pIC50) of 6.60 to 7.30.

For the molecule `Cn1nc(C(=O)N[C@H]2CC3(C2)C[C@H](Oc2ncccc2C(N)=O)C3)cc1OCC(F)(F)C(F)F` (stereo partly drawn) [Example 87, 2-((aR)-6-(1-methyl-5-(2,2,3,3-tetrafluoropropoxy)-1H-pyrazole-3-carboxamido)spiro[3.3]heptan-2-yl)oxy) nicotinamide, trifluoroacetate], the pIC50 was 6.60 to 7.30. Under `Cc1nc(-c2ccccn2)sc1C(=O)N[C@H]1CC2(C1)C[C@H](Oc1ncccc1C(N)=O)C2` (stereo partly drawn) [Example 88, N-((aR)-6-((3-carbamoyl-pyridin-2-yl)oxy)spiro[3.3]heptan-2-yl)-4-methyl-2-(pyridin-2-yl)thiazole-5-carboxamide, trifluoroacetate] stands 5.60 to 6.60; under `Cn1nc(-c2ccccc2)cc1C(=O)N[C@H]1CC2(C1)C[C@H](Oc1ncccc1C(N)=O)C2` (stereo partly drawn) [Example 89, 2-((aR)-6-(1-methyl-3-phenyl-1H-pyrazole-5-carboxamido)spiro[3.3]heptan-2-yl)oxy) nicotinamide, trifluoroacetate], 5.60 to 6.60. Consider `Cn1nc(C(=O)N[C@H]2CC3(C2)C[C@H](Oc2ncccc2C(N)=O)C3)cc1OCCC(F)(F)F` (stereo partly shown) [Example 91, 2-((aR 6-(1-methyl-5-(3,3,3-trifluoropropoxy)-1H-pyrazole-3-carboxamido)spiro[3.3]heptan-2-yl)oxy) nicotinamide, trifluoroacetate], for which the pIC50 is 6.60 to 7.30. Take `Cc1nc(N2CCC(F)(F)C2)sc1C(=O)N[C@H]1CC2(C1)C[C@H](Oc1ncccc1C(N)=O)C2` (stereo partly drawn) [Example 92, N-((aR)-6-((3-carbamoylpyridin-2-yl)oxy)spiro[3.3]heptan-2-yl)-2-(3,3-difluoropyrrolidin-1-yl)-4-methylthiazole-5-carboxamide, trifluoroacetate]: the pIC50 is 6.60 to 7.30.
